Where two headings read alike, the source gives them in different places.
System: influenza virus (influenza A/Kitakyusyu/159/93(H3N2))
Assay type: cell-based
Settings: 10 minutes at room temperature, PBS control 128

[Cu+].[Cu+].[S-2] [compound 26, COPPER(I) SULFIDE]
HA TITER (material concentration 0.5 percent by mass in PBS): 64
HA TITER (material concentration 5 percent by mass in PBS): 16

Reference: patent US9155309B2, “Virus inactivating sheet” (priority 2009, dated 2015)
